Experimental findings from US20200155500A1, “COMPOSITION FOR PREVENTING AND TREATING PANCREATITIS CONTAINING NAPHTHOQUINONE-BASED COMPOUND AS ACTIVE INGREDIENT” (NADIANBIO Ltd., priority 2015, published 2020) are described below.

One test relates to MCP-1. In words: Expression of MCP-1 in pancreas by RT-PCR, caerulein mediated pancreatitis model. Format: in vivo. The settings on record: C57BL/6 mice, oral 10, 20, 40 mg/kg one day before caerulein, vs caerulein treated group. On the procedure:
(§1) In this invention, C57BL/6 mice at the body weight of about 22±2 g were used. All the mice were raised in a sterile animal laboratory with constant temperature (22˜26[…]) and humidity (55˜60%). The mice were adapted for 1 week while feeding with normal solid feed (Samtaco Korea) and water. All the experiments were performed according to the guide for the care and use of laboratory animals set by Wonkwang University.

In test [1] the test system is IL-1β. The test is described as follows: Serum IL-1β level by ELISA, caerulein mediated pancreatitis model. The format is in vivo. To be noted: C57BL/6 mice, oral 10, 20, 40 mg/kg one day before caerulein, dose-dependently, vs caerulein treated group. On the procedure:
as §1
(§2) Serum was obtained from the animal model and then the level of serum IL-1β was measured by using mouse IL-1β ELISA kit (BD, USA). First, nasal lavage fluid or diluted serum was loaded in the 96-well plate coated with the mouse IL-1β specific antibody, followed by reaction at room temperature for 2 hours. After washing the plate, biotin conjugate was added thereto, followed by reaction at room temperature for 1 hour. After washing the plate, streptavidin-HRP working solution was added thereto, followed by reaction. After washing the plate again, stabilized chromogen was added thereto, followed by reaction. Then, OD450 was measured. In addition, the expression of IL-1β in pancreas was confirmed by real-time PCR in each pancreas tissue. To extract total RNA, 1 mL of TRIzol (Invitrogen, USA) was added to 20 mg of each pancreas tissue, which stood on ice for 5 minutes to lyse cells. […] The RNA was quantified by using Nanodrop 2000 (Thermo, USA). […]
(In general: ELISA stands for enzyme-linked immunosorbent assay.)

Test [2] has as its system caerulein mediated pancreatitis. In words: Morphological changes of pancreas tissue (hematoxylin-eosin, histological scores), preventive treatment. The format is in vivo. The settings on record: C57/BL6 mouse, oral 10, 20, 40 mg/kg one day before caerulein; dose-dependently. On the procedure: as §1
Pancreas tissues were separated, fixed in 10% formalin for 24 hours at 4[…], demineralized with 10% ethylenediaminetetra-acetic acid (EDTA, pH 7.4) solution, washed, dehydrated, embedded in paraffin and cut into 5 μm sections. The sections were stained with hematoxylin-eosin, followed by observation under optical microscope.

Test [3] has the same test system. In words: Ratio of pancreas weight to body weight, caerulein mediated pancreatitis model. The format is in vivo. The settings on record: C57BL/6 mice, oral 10, 20, 40 mg/kg one day before caerulein (50 μg/kg i.p. x6); vs caerulein treated group. On the procedure: as §1, with “University. […] When pancreatitis is developed, the weight of pancreas is known to be increased because of edema. Thus, blood was extracted from all the animals finished with the experiment and then the ratio of the pancreas weight to the body weight was measured. […] After blood was extracted, the pancreas was cut out and the weight of the pancreas to the body weight was measured by the pancreas weight (wet pancreas weight)/body weight (wet body weight) formula of Grady method.” for “University.”

Test [4] deals with IL-1β. In words: Expression of IL-1β in pancreas by real-time PCR, caerulein mediated pancreatitis model. Format: in vivo. To be noted: C57BL/6 mice, oral treatment one day before caerulein, vs caerulein treated group. On the procedure:
as §1, §2
A general note: Quantitative PCR measures a nucleic acid by following its amplification.

The subject of test [5] is amylase. The test is described as follows: Serum amylase activity, caerulein mediated pancreatitis model. Format: in vivo. The settings on record: C57BL/6 mice, oral 10, 20, 40 mg/kg one day before caerulein; vs caerulein treated group. On the procedure: as §1
(§3) Serum was obtained and then OD595 and OD412 were measured by using amylase activity analysis kit (DAMY-100; BioAssay Systems, USA) and lipase activity analysis kit (DLPS-100; BioAssay Systems, USA) to investigate the activities of amylase and lipase.

For test [6], the system named is lipase. In words: Serum lipase activity, caerulein mediated pancreatitis model. Format: in vivo. The settings on record: C57BL/6 mice, oral 10, 20, 40 mg/kg one day before caerulein; vs caerulein treated group. On the procedure:
as §1, §3

In test [7] the test system is lung damage induced by caerulein. In words: Lung damage induced by pancreatitis, C57/BL6 mouse. Format: in vivo. To be noted: cotreatment 10, 20, 40 mg/kg.
In test [8] the test system is pancreatitis induced by caerulein. In words: Therapeutic effect on caerulein-induced pancreatitis, pancreas tissue morphology. Format: in vivo, C57BL/6 mice. To be noted: intravenous injection six hours after the final caerulein administration; 10, 20, 40 mg/kg. On the procedure: as §1
Test [9] has as its system NQO-1 knock out mouse. In words: Ratio of pancreas weight to body weight in NQO-1 knock out mouse. Format: in vivo. To be noted: NQO1 knock out mouse; caerulein treated group vs β-lapachone cotreated group. On the procedure:
(§4) To confirm whether or not the protective effect of β-lapachone on pancreatitis was via the activation pathway of NQO-1 enzyme, the present inventors investigated the weight of pancreas, the activities of serum amylase and lipase, and the concentration of serum IL-1β in NQO-1 knock out mouse.
(§5) Then, the ratio of the pancreas weight to the body weight was calculated by the same manner as described in Experimental Example 2. The activities of serum amylase and lipase were measured using a kit by the same manner as described in Experimental Example 3.

Test [10] concerns NQO-1 knock out mouse. The test is described as follows: Morphological changes of pancreas tissue in NQO1 knock out mouse. Format: in vivo. The settings on record: 40 mg/kg plus caerulein, vs caerulein treated group. From the text:
β-lapachone is known as a co-substrate of NQO-1 (NAD(P)H: quinone oxidoreductase-1). So, in order to confirm whether or not the pancreas protection effect of β-lapachone was via the activation pathway of NQO-1, the morphological changes of pancreas were investigated in NQO-1 knock out mouse.
Then, the pancreas tissues were stained with hematoxylin-eosin by the same manner as described in Experimental Example 5, followed by observation under optical microscope.

Test [11] relates to amylase. In words: Serum amylase activity in NQO-1 knock out mouse. Format: in vivo. The settings on record: NQO1 knock out mouse; caerulein treated group vs β-lapachone cotreated group. On the procedure:
as §4, §5

In test [12] the test system is IL-1β. In words: Serum IL-1β concentration in NQO-1 knock out mouse. Format: in vivo. To be noted: NQO1 knock out mouse; caerulein treated group vs β-lapachone cotreated group. On the procedure:
as §4, §5

Test [13] deals with NQO-1 knock out mouse. In words: Lung damage induced by pancreatitis, NQO-1 knock out mouse. The settings on record: cotreatment with β-lapachone. Format: in vivo.
For test [14], the system named is lipase. The test is described as follows: Serum lipase activity in NQO-1 knock out mouse. Format: in vivo. The settings on record: NQO1 knock out mouse; caerulein treated group vs β-lapachone cotreated group. On the procedure: as §4, §5

In the case of `CC1OC2=C(C(=O)C(=O)c3ccccc32)C1(C)C` (centres unmarked) [dunnione], the “expression of MCP-1 in pancreas” value in the test on MCP-1 is on record as “reduced dose-dependently”. Moreover, the “serum IL-1β level” value in the test with IL-1β [1] was “significantly reduced”. In addition, in test [2], the “edema, inflammation, and cell necrosis of pancreas tissues induced by caerulein (histological scores)” value is “all inhibited”. Moreover, the “ratio of pancreas weight/body weight” value in [3] is listed as “significantly reduced dose-dependently”. Besides, the “expression of IL-1β in pancreas” value with IL-1β [4] was “significantly reduced”. In addition, the “amylase activity in serum” value in the test with amylase [5] is recorded as “significantly reduced dose-dependently”. Moreover, the “lipase activity in serum” value in the test with lipase [6] is given as “significantly reduced dose-dependently”. Moreover, the “lung damage induced by caerulein” value in test [7] was “significantly inhibited”.

For the molecule `CC1(C)CCC2=C(O1)c1ccccc1C(=O)C2=O` [β-lapachone], the “edema, inflammation, and cell necrosis of pancreas tissues induced by caerulein (histological scores)” value was “all reduced” in [8] and “all inhibited” in [2]. The “expression of MCP-1 in pancreas” value in the test with MCP-1 is recorded as “reduced dose-dependently”. The “ratio of pancreas weight/body weight” value with NQO-1 knock out mouse [9] is listed as “not significantly different”; in [3], “significantly reduced dose-dependently”. For the same molecule, the “serum IL-1β level” value in the test on IL-1β [1] is “significantly reduced”. For the same molecule, in the test with NQO-1 knock out mouse [10], the “edema, inflammation, and cell necrosis of pancreas tissues” value was “not reduced”. Also, in the test with amylase [11], the “activity of serum amylase” value was “not significantly different”. Also, the “concentration of serum IL-1β” value in the test with IL-1β [12] is reported as “not much different”. Further, the “expression of IL-1β in pancreas” value in the test on IL-1β [4] is recorded as “significantly reduced”. Moreover, the “amylase activity in serum” value with amylase [5] is recorded as “significantly reduced dose-dependently”. Also, the entries for the “lung damage induced by caerulein” value (in the test with NQO-1 knock out mouse [13]; in [7]) were “not inhibited” and “inhibited”, respectively. Moreover, the “activity of serum lipase” value with lipase [14] is on record as “not significantly different”. For the same molecule, the “lipase activity in serum” value with lipase [6] is “significantly reduced dose-dependently”.
